Experimental data reported in patent US7202339B2, “Crystals of MarR polypeptides, regulators of multiple antibiotic resistance” (Trustees of Tufts College, priority 2001, dated 2007).

Assays:
MarR [1] = molecular target: T1, MarR (Escherichia coli, UniProt P27245); conditions: at millimolar concentrations; cited from earlier work
MarR [2] = molecular target: T1, MarR; conditions: at millimolar concentrations; cited from earlier work; remark: listed apart in the source
[3] = molecular target: MarR, regulator of multiple antibiotic resistance of Escherichia coli (wild type, expressed from pMarR-WT) (Escherichia coli); test: X-ray co-crystal structure of MarR dimer with salicylate

T1 sequence (P27245 whole entry): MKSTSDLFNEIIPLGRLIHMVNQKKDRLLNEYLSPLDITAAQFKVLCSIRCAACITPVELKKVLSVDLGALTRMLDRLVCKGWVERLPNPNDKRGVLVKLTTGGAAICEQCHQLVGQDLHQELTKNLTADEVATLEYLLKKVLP

**Q.** Which “inhibition of MarR activity in whole cells” value (MarR [1]) does the source give for `O=C([O-])c1ccccc1O.[Na+]` [sodium salicylate] here?
**A.** inhibit MarR activity

**Q.** What about the “inhibition of MarR activity in vitro” value (MarR [2]) of the same molecule?
**A.** inhibit MarR activity

**Q.** For “MarR, regulator of multiple antibiotic resistance of Escherichia coli (wild type, expressed from pMarR-WT)”, which buried surface area (N-/C-terminal hydrophobic core) [3] is on record?
**A.** 3570 Å^2

**Q.** And the total buried surface area [3]?
**A.** 3700 Å^2
